Laboratory results published in US11078540B2, “Methods of diagnosing and treating cancer in patients having or developing resistance to a first cancer therapy” (DANA-FARBER CANCER INSTITUTE, INC., priority 2010, dated 2021).
One block for each molecule: values may come before it.

What was measured:
[1] = tested on: COT mRNA; assay: Quantitative RT-PCR of COT mRNA in lesion-matched biopsies of PLX4032-treated metastatic melanoma patients; assay type: in vivo, human; conditions: 3 patients with metastatic B-RAF^V600E melanoma, on-treatment vs pre-treatment biopsies
From the text: Biopsied tumor material consisted of discarded and de-identified tissue that was obtained with informed consent and characterized under protocol 02-017 (paired samples, Massachusetts General Hospital) and 07-087 (unpaired sample, Dana-Farber Cancer Institute). For paired specimens, ‘on-treatment’ samples were collected 10-14 days after initiation of PLX4032 treatment (Table 6).
(§1) mRNA was extracted from cell lines and fresh-frozen tumors using the RNeasy kit (Qiagen). Total mRNA was used for subsequent reverse transcription using the SuperScript III First-Strand Synthesis SuperMix (Invitrogen) for cell lines and unpaired tumor samples, and the SuperScript VILO cDNA synthesis kit (Invitrogen) for paired frozen tumor samples. 5 μl of the RT reaction was used for quantitative PCR using SYBR Green PCR Master Mix and gene-specific primers, in triplicate, using an ABI 7300 Real Time PCR System. Primers used for detection are as follows: […]

[2] = tested on: A375 cells; assay: High throughput ORF screening: viability of A375 expressing the kinase ORF collection in 1 μM PLX4720 relative to untreated, normalized to MEK1DD (Cell Titer-Glo); assay type: cell-based, human
Method: A375 melanoma cells were plated in 384-well microtiter plates (500 cells per well). The following day, cells were spin-infected with the lentivirally-packaged kinase ORF library in the presence of 8 ug/ml polybrene. 48 hours post-infection, media was replaced with standard growth media (2 replicates), media containing 1 μM PLX4720 (2 replicates, 2 time points) or media containing 10 ug/ml blasticidin (2 replicates). After four days and 6 days, cell growth was assayed using Cell Titer-Glo (Promega) according to manufacturer instructions. The entire experiment was performed twice.
Raw luminescence values were imported into Microsoft Excel. Infection efficiency was determined by the percentage of duplicate-averaged raw luminescence in blasticidin selected cells relative to non-selected cells. ORFs with an infection efficiency of less than 0.70 were excluded from further analysis along with any ORF having a standard deviation of >15,000 raw luminescence units between duplicates. To identify ORFs whose expression affects proliferation, we compared the duplicate-averaged raw luminescence of individual ORFs against the average and standard deviation of all control-treated cells via the z-score, or standard score, below,
[formula] where x=average raw luminescence of a given ORF, μ=the mean raw luminescence of all ORFs and σ=the standard deviation of the raw luminescence of all wells. Any individual ORF with a z-score>+2 or <−2 was annotated as affecting proliferation and removed from final analysis. Differential proliferation was determined by the percentage of duplicate-averaged raw luminescence values in PLX4720 (1 μM) treated cells relative to untreated cells. […] MEK1^DD normalized differential proliferation for each individual ORF was averaged across two duplicate experiments, with two time points for each experiment (day 4 and day 6). A z-score was then generated, as described above for average MEK1^DD normalized differential proliferation. ORFs with a z-score of >2 were considered hits and were followed up in the secondary screen.

[3] = target: T1, COT (Homo sapiens, UniProt P41279); assay: Inhibition of COT kinase activity in RPMI-7951 cells (MEK/ERK phosphorylation immunoblot); assay type: cell-based; conditions: 1 h treatment
T1 construct: endogenous in cells; host or cells: RPMI-7951 (ATCC), MAP3K8/COT-amplified, B-RAF V600E melanoma line
Method: Cells were washed twice with ice-cold PBS and lysed with 1% NP-40 buffer [150 mM NaCl, 50 mM Tris pH 7.5, 2 mM EDTA pH 8, 25 mM NaF and 1% NP-40] containing 2× protease inhibitors (Roche) and 1× Phosphatase Inhibitor Cocktails I and II (CalBioChem). Lysates were quantified (Bradford assay), normalized, reduced, denatured (95° C.) and resolved by SDS gel electrophoresis on 10% Tris/Glycine gels (Invitrogen). Protein was transferred to PVDF membranes and probed with primary antibodies recognizing pERK1/2 (T202/Y204), pMEK1/2 (S217/221), MEK1/2, MEK1, MEK2, C-RAF (rabbit host), pC-RAF (pS338) (Cell Signaling Technology; 1:1,000), V5-HRP (Invitrogen; (1:5,000), COT (1:500), B-RAF (1:2,000), Actin (1:1,000), Actin-HRP (1:1,000; Santa Cruz)), C-RAF (mouse host; 1:1,000; BD Transduction Labs), Vinculin (Sigma; 1:20,000), AXL (1:500; R&D Systems). After incubation with the appropriate secondary antibody (anti-rabbit, anti-mouse IgG, HRP-linked; 1:1,000 dilution, Cell Signaling Technology or anti-goat IgG, HRP-linked; 1:1,000 dilution; Santa Cruz), proteins were detected using chemiluminescence (Pierce). […] Immunoblots were performed as above. Phospho-protein quantification was performed using NIH Image J.
Adherent RPMI-7951 cells were washed twice with 1×PBS and incubated overnight in serum-free growth media.

[4] = tested on: B-RAF^V600E cell lines; assay: Pharmacologic growth inhibition assays (WST1 viability, GI50, single-dose studies); assay type: cell-based, human; conditions: for cell growth, in combination with PLX4720: ectopic COT expression, 1 μM each, versus single-agent PLX4720 up to 10 μM
Method: Cultured cells were seeded into 96-well plates (3,000 cells per well) for all melanoma cell lines; 1,500 cells were seeded for A375. Twenty-four hours after seeding, serial dilutions of the relevant compound were prepared in DMSO added to cells, yielding final drug concentrations ranging from 100 μM to […], with the final volume of DMSO not exceeding 1%. Cells were incubated for 96 h following addition of drug. Cell viability was measured using the WST1 viability assay (Roche). Viability was calculated as a percentage of control (untreated cells) after background subtraction. A minimum of six replicates were performed for each cell line and drug combination. Data from growth-inhibition assays were modeled using a nonlinear regression curve fit with a sigmoid dose-response. […] Sigmoid-response curves that crossed the 50% inhibition point at or above 10 μM have GI50 values annotated as >10 μM. For single-dose studies, the identical protocol was followed, using a single dose of indicated drug (1 μM unless otherwise noted).

[5] = tested on: pERK1/2 (T202/Y204), pMEK1/2 (S217/221); assay: Immunoblots and immunoprecipitations of MAPK pathway proteins in treated cells; assay type: cell-based, human; conditions: for pERK expression, in combination with PLX4720: ectopic COT expression, 1 μM each, versus single-agent PLX4720 up to 10 μM
Method: Cells were washed twice with ice-cold PBS and lysed with 1% NP-40 buffer [150 mM NaCl, 50 mM Tris pH 7.5, 2 mM EDTA pH 8, 25 mM NaF and 1% NP-40] containing 2× protease inhibitors (Roche) and 1× Phosphatase Inhibitor Cocktails I and II (CalBioChem). Lysates were quantified (Bradford assay), normalized, reduced, denatured (95° C.) and resolved by SDS gel electrophoresis on 10% Tris/Glycine gels (Invitrogen). Protein was transferred to PVDF membranes and probed with primary antibodies recognizing pERK1/2 (T202/Y204), pMEK1/2 (S217/221), MEK1/2, MEK1, MEK2, C-RAF (rabbit host), pC-RAF (pS338) (Cell Signaling Technology; 1:1,000), V5-HRP (Invitrogen; (1:5,000), COT (1:500), B-RAF (1:2,000), Actin (1:1,000), Actin-HRP (1:1,000; Santa Cruz)), C-RAF (mouse host; 1:1,000; BD Transduction Labs), Vinculin (Sigma; 1:20,000), AXL (1:500; R&D Systems). After incubation with the appropriate secondary antibody (anti-rabbit, anti-mouse IgG, HRP-linked; 1:1,000 dilution, Cell Signaling Technology or anti-goat IgG, HRP-linked; 1:1,000 dilution; Santa Cruz), proteins were detected using chemiluminescence (Pierce). Immunoprecipitations were performed overnight at 4° C. in 1% NP-40 lysis buffer, as described above, at a concentration of 1 μg/μl total protein using an antibody recognizing C-RAF (1:50; Cell Signaling Technology). Antibody: antigen complexes were bound to Protein A agarose (25 μL, 50% slurry; Pierce) for 2 hrs. at 4° C. Beads were centrifuged and washed three times in lysis buffer and eluted and denatured (95° C.) in 2× reduced sample buffer (Invitrogen). Immunoblots were performed as above. Phospho-protein quantification was performed using NIH Image J.

[6] = tested on: A375 cells; assay: Secondary screen: PLX4720 GI50 in A375 expressing candidate resistance ORFs (WST-1); assay type: cell-based, human; conditions: for GI50: Homo sapiens
Method: (§2) ORF-expressing lentivirus was added at a 1:10 dilution in the presence of 8 μg/ml polybrene, and centrifuged at 2250 RPM and 37° C. for 1 h. Following centrifugation, virus-containing media was changed to normal growth media and allowed to incubate for 18 h.

[7] = tested on: SKMEL28 cells; assay: Secondary screen: PLX4720 GI50 in SKMEL28 expressing candidate resistance ORFs (WST-1); assay type: cell-based, human; conditions: for GI50: Homo sapiens
Method: as §2

[8] = tested on: COT mRNA; assay: Quantitative RT-PCR of COT mRNA in cell lines; assay type: cell-based, human; conditions: COT-expressing A375 cells, 1 μM PLX4720, 18 h
Method: as §1

Molecule: CCCS(=O)(=O)Nc1ccc(F)c(C(=O)c2c[nH]c3ncc(-c4ccc(Cl)cc4)cc23)c1F [PLX4032]
COT mRNA expression concurrent with treatment [1]: increased COT mRNA expression

Molecule: CCL4
Z-SCORE of average differential proliferation (1 μM PLX4720/control) ([2]; A375 cells expressing the named ORF, relative to mean of all ORFs (44.26%, SD 7.19%)): −0.13 | AVERAGE differential proliferation (1 μM PLX4720/control), relative to MEK DD ([2]; A375 cells expressing the named kinase-related ORF, 1 μM PLX4720 vs untreated control, normalized to MEK DD): 43.30%

MEK and ERK phosphorylation [3]: dose-dependent suppression
Molecule: CN(c1cccnc1)c1cc2c(Nc3ccc(F)c(Cl)c3)c(C#N)cnc2cn1 [small molecule COT kinase inhibitor, 4-(3-Chloro-4-fluorophenylamino)-6-(pyridin-3-yl-methylamino)-3-cyano-[1,7]-naphthyridine]

Molecule: Cn1cnc2c(F)c(Nc3ccc(Br)cc3Cl)c(C(=O)NOCCO)cc21 [AZD6244]
cell growth, in combination with PLX4720 [4]: more effectively than did single-agent PLX4720 | pERK expression, in combination with PLX4720 [5]: more effectively than did single-agent PLX4720

Molecule: O=C(NOCC1CC1)c1ccc(F)c(F)c1Nc1ccc(I)cc1Cl [CI-1040]
sensitivity to MEK inhibitor with ectopic COT expression ([4]; A375 and SKMEL28 cells ectopically expressing COT): decreased sensitivity | sensitivity of cell lines with aberrant MAP3K8/COT copy number/expression ([4]; B-RAF^V600E cell lines): insensitive | sensitivity to MEK inhibition (growth) ([4]; OUMS-23 and RPMI-7951 cell lines): refractory | cell growth, in combination with PLX4720 [4]: more effectively than did single-agent PLX4720 | ERK phosphorylation ([5]; OUMS-23 and RPMI-7951, 1 μM CI-1040): sustained ERK phosphorylation | pERK expression, in combination with PLX4720 [5]: more effectively than did single-agent PLX4720

Fold Change GI50 ([6]; A375 expressing AXL ORF, relative to MEK1): 5.98 fold | Fold Change GI50 ([6]; A375 expressing CRKL ORF, relative to MEK1): 59.8 fold | Fold Change GI50 ([6]; A375 expressing ERBB2 ORF, relative to MEK1): 7.95 fold | Fold Change GI50 ([6]; A375 expressing FGR ORF, relative to MEK1): 59.8 fold | Fold Change GI50 ([6]; A375 expressing MAP3K8 ORF, relative to MEK1): 598 fold | Fold Change GI50 ([6]; A375 expressing MEK1, (−) control): 1 fold | Fold Change GI50 ([6]; A375 expressing MEK DD, (+) control, relative to MEK1): 28 fold | Fold Change GI50 ([6]; A375 expressing PAK3 ORF, relative to MEK1): 2.95 fold | Fold Change GI50 ([6]; A375 expressing PRKCE ORF, relative to MEK1): 26.4 fold | Fold Change GI50 ([6]; A375 expressing PRKCH ORF, relative to MEK1): 24.7 fold | Fold Change GI50 ([6]; A375 expressing RAF1 ORF, relative to MEK1): 598 fold | GI50 ([6]; A-375, A375 expressing AXL ORF): 1000 nM | GI50 ([6]; A-375, A375 expressing CRKL ORF): > 10000 nM | GI50 ([6]; A-375, A375 expressing ERBB2 ORF): 1330 nM | GI50 ([6]; A-375, A375 expressing FGR ORF): > 10000 nM | GI50 ([6]; A-375, A375 expressing MAP3K8 ORF): > 100000 nM | GI50 ([6]; A-375, A375 expressing MEK1, (−) control): 167 nM | GI50 ([6]; A-375, A375 expressing MEK DD, (+) control): 4800 nM | GI50 ([6]; A-375, A375 expressing PAK3 ORF): 493 nM | GI50 ([6]; A-375, A375 expressing PRKCE ORF): 4410 nM | GI50 ([6]; A-375, A375 expressing PRKCH ORF): 4140 nM | GI50 ([6]; A-375, A375 expressing RAF1 ORF): ≥ 100000 nM | shift of the PLX4720 GI50 ([6]; MAP3K8 (COT/Tpl2) and RAF1 (C-RAF) ORFs, in A375 and SKMEL28): 10-600 fold | GI50 ([7]; SK-MEL-28, SKMEL28 expressing AXL ORF): 1180 nM | GI50 ([7]; SK-MEL-28, SKMEL28 expressing CRKL ORF): 9700 nM | GI50 ([7]; SK-MEL-28, SKMEL28 expressing ERBB2 ORF): 1000 nM | GI50 ([7]; SK-MEL-28, SKMEL28 expressing FGR ORF): 5000 nM | GI50 ([7]; SK-MEL-28, SKMEL28 expressing MAP3K8 ORF): > 100000 nM | GI50 ([7]; SK-MEL-28, SKMEL28 expressing MEK1, (−) control): 1000 nM | GI50 ([7]; SK-MEL-28, SKMEL28 expressing MEK DD, (+) control): 8290 nM | GI50 ([7]; SK-MEL-28, SKMEL28 expressing PAK3 ORF): 904 nM | GI50 ([7]; SK-MEL-28, SKMEL28 expressing PRKCE ORF): 1910 nM | GI50 ([7]; SK-MEL-28, SKMEL28 expressing PRKCH ORF): 2260 nM | GI50 ([7]; SK-MEL-28, SKMEL28 expressing RAF1 ORF): ≥ 10000 nM | Fold Change GI50 ([7]; SKMEL28 expressing AXL ORF, relative to MEK1): 1.18 fold | Fold Change GI50 ([7]; SKMEL28 expressing CRKL ORF, relative to MEK1): 9.7 fold | Fold Change GI50 ([7]; SKMEL28 expressing ERBB2 ORF, relative to MEK1): 1 fold | Fold Change GI50 ([7]; SKMEL28 expressing FGR ORF, relative to MEK1): 5 fold | Fold Change GI50 ([7]; SKMEL28 expressing MAP3K8 ORF, relative to MEK1): ~100 fold | Fold Change GI50 ([7]; SKMEL28 expressing MEK1, (−) control): 1 fold | Fold Change GI50 ([7]; SKMEL28 expressing MEK DD, (+) control, relative to MEK1): 8.29 fold | Fold Change GI50 ([7]; SKMEL28 expressing PAK3 ORF, relative to MEK1): 0.9041 fold | Fold Change GI50 ([7]; SKMEL28 expressing PRKCE ORF, relative to MEK1): 1.91 fold | Fold Change GI50 ([7]; SKMEL28 expressing PRKCH ORF, relative to MEK1): 2.26 fold | Fold Change GI50 ([7]; SKMEL28 expressing RAF1 ORF, relative to MEK1): ≥10 fold
Molecule: CCCS(=O)(=O)Nc1ccc(F)c(C(=O)c2c[nH]c3ncc(Cl)cc23)c1F [PLX4720]
GI50 ([4]; Homo sapiens, OUMS-23, RPMI-7951 and M307 (COT-expressing B-RAF^V600E cell lines)): 8000 to 10000 nM | viability at 1 µM ([2]; Homo sapiens, A-375, A375 expressing kinase ORF collection, 1 μM PLX4720, read-out: relative viability, mean of all ORFs, normalized to MEK1DD): 44.3% | endogenous C-RAF:B-RAF heterodimers ([5]; A375 cells, immunoprecipitated C-RAF, 1 μM PLX4720, 18 hr): measurable and inducible | COT protein ([5]; COT-expressing A375 cells): dose-dependent increase | ERK phosphorylation in the context of B-RAF inhibition ([5]; OUMS-23, RPMI-7951 and M307): sustained ERK phosphorylation | phosphorylation of ERK/MEK ([5]; OUMS-23, across a dose range of PLX4720): constitutive phosphorylation | Fold Change GI50 ([6]; A375, Mock control, relative to MEK1): 0.91 fold | GI50 ([6]; A-375, A375, Mock control): 153 nM | GI50 ([7]; SK-MEL-28, SKMEL28, Mock control): 529 nM | Fold Change GI50 ([7]; SKMEL28, Mock control, relative to MEK1): 1.89 fold | ectopic COT mRNA levels [8]: without affecting
